# Assay results published in patent EP0170121A1, “2-Hydroxy-3-aryloxypropyl or 2-hydroxy-2-benzofuranyl ethyl tertiary amine having an anti-hyperglycaemic and/or anti-obesity activity” (BEECHAM GROUP PLC, priority 1984, dated 1986).
# Where a name gives a salt, the structure may show the parent alone. Marks after values point to notes of the source that are not given here.
# Test system: Male Sprague-Dawley rats
# Experiment: Effect on energy expenditure of rats (oxygen consumption, oral dosing)
# Format: in vivo
# Details: deprived of food, p.o. in water, percentage of the rate of energy expenditure of the rats dosed with water, dose differs per compound (Dose mg/kg p.o.); for Mean Energy Expenditure (0-3h): 0-3h after dosing; for Mean Energy Expenditure (0-21h): 0-21h after dosing
# Description: Male Sprague-Dawley rats each weighing between 170-200 g were deprived of food for 16 hours before, and during the experiment. Water was provided ad lib at all times. The compounds were administered orally in water to 3 or 4 rats. A further 4 rats were dosed orally with water. The rats were placed in boxes through which air was drawn and the oxygen content of the air leaving the boxes was measured. The energy expenditure of the rats was calculated for 3 hours and for 21 hours after dosing from the volume of air leaving the boxes and its oxygen content, following the principles described by J.B. de V. Weir, J. Physiol. (London) 109, 1-9 (1949). The results are expressed as a percentage of the rate of energy expenditure of the rats dosed with water.
Structure (SMILES),Mean Energy Expenditure (0-3h) [percentage],Mean Energy Expenditure (0-21h)
"CCOC(=O)COc1ccc(CC[C@@H](C)N(C[C@H](O)COc2ccccc2)C[C@H](O)c2ccccc2)cc1 [Example 21, Ethyl 4-[(R)-3-[N-[(R)-2-hydroxy-2-phenethyl]-N-[(S)-2-hydroxy-3-phenoxypropyl]amino]butyl]phenoxyacetate, hydrochloride]",110,107 percentage
"C[C@H](Cc1ccc(OCCO)cc1)N(C[C@H](O)COc1ccccc1)C[C@H](O)c1ccccc1 [Example 22, 4-[(R)-2-[N-[(R)-2-Hydroxy-2-phenethyl]-N-[(S)-2-hydroxy 3-phenoxypropyl]amino]propyl]phenoxyethanol, hydrochloride, hemihydrate]",120,107 percentage
"COC(=O)COc1ccc(C[C@@H](C)N(C[C@H](O)COc2ccccc2)C[C@H](O)c2ccccc2)cc1 [Example 24, Methyl 4-[(R)-2-(N-[(R)-2-hydroxy-2-phenethyl]-N-[(S)-2-hydroxy-3-phenoxypropyl]amino]propyl]phenoxyacetate, hydrochloride, hemihydrate]",146,122 percentage
"C[C@H](COc1ccc(OCC(N)=O)cc1)N(C[C@H](O)COc1ccccc1)C[C@H](O)c1ccccc1 [Example 25, 4-[(R)-2-[N-[(R)-2-Hydroxy-2-phenethyl]-N-[(S)-2-hydroxy-3-phenoxypropyl]amino]propoxy]phenoxyacetamide, hydrochloride]",126,115 percentage
"CCOC(=O)COc1ccc(C[C@@H](C)N(CC(O)c2cc3ccccc3o2)C[C@H](O)c2ccccc2)cc1 (stereo partly drawn) [Example 27, Ethyl 4-[(R)-2-[N-[(R)-2-hydroxy-2-phenethyl]-N-[2-(2-benzofuranyl)-2-hydroxyethyl]amino]propyl]phenoxyacetate hydrochloride]",134,114 percentage
"C[C@H](Cc1ccc(OCC(N)=O)cc1)N(C[C@@H](O)COc1ccccc1)C[C@H](O)c1ccc(O)cc1 [Example 28, 4-[(R)-2-[N-[(R)-2-Hydroxy-2-(4-hydroxyphenyl)ethyl]-N-[(R)-2-hydroxy-3-phenoxypropyl]amino]propyl]phenoxyacetamide]",131,117* percentage
"COC(=O)COc1ccc(CC(C)N(CC(O)COc2ccccc2)CC(O)c2cc(Cl)c(N)c(Cl)c2)cc1 (stereo not shown) [Example 29, Methyl 4-[2-[N-[2-(4-amino-3,5-dichlorophenyl)-2-bydroxy-ethyl]-N-[2-hydroxy-3-phenoxypropyl]amino]propyl]phenoxyacetate, hemifumarate]",131,122* percentage
"CC(Cc1ccc(OCC(N)=O)cc1)N(CC(O)COc1ccccc1)CC(O)c1cc(Cl)c(N)c(Cl)c1 (stereo not shown) [Example 30, 4-[2-[N-[2-(4-Amino-3,5-dichlorophenyl)-2-hydroxyethyl]-N-[2-hydroxy-3-phenoxypropyl]amino]propyl]phenoxyacetamide]",129,116* percentage
